# Assay results reported in patent publication US11504367B2, “Compounds and methods for treating oxalate-related diseases” (OxaluRx, Inc., priority 2019, dated 2022).
# Target: recombinant full-length human hydroxyacid oxidase 1 (HAO1), the equivalents of hGOX (Homo sapiens (Human), UniProt Q9UJM8)
# Experiment: In-vitro human glycolate oxidase (hGOX) assay (Amplex red fluorescence)
# Format: biochemical
# Conditions: 6 nM recombinant human GO, 85 μM glycolate, 10 min preincubation
# Procedure: The in-vitro glycolate oxidase assay was performed using recombinant full-length human hydroxyacid oxidase 1 (HAO1), the equivalents of hGOX. […] Purified HAO1 was dissolved in assay buffer consisting of 10 mM NaCl, 110 mM KCl, 2 mM MgCl2, 50 mM HEPES (pH 7.4), and 0.01% Triton™ X-100.
# The plates were incubated for 10 min at room temperature, at which point Amplex red reagent (50 μM) was added.
# The fluorescence intensity signal was measured on a VariosKan LUX instrument using an excitation of 560 nm and an emission of 590 nm. The IC50 values were calculated using Graphpad Prism. The fluorescence signal of wells containing only DMSO was defined as 100% GO activity, while the fluorescence signal without the glycolate substrate was defined as 0% GO activity.
# recombinant full-length human hydroxyacid oxidase 1 (HAO1), the equivalents of hGOX, sequence (Q9UJM8 whole entry): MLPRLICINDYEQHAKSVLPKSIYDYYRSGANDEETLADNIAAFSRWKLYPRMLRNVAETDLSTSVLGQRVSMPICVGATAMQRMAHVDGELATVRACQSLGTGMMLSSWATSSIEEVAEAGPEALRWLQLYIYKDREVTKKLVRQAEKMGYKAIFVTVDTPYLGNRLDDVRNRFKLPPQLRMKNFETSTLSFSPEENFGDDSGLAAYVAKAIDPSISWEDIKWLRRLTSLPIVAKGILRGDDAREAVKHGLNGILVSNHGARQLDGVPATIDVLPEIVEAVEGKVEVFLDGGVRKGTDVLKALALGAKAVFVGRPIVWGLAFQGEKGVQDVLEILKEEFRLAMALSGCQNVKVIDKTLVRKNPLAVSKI
row,SMILES,IC50
1,"O=C(O)c1nn[nH]c1Oc1cccc(C#CC2CCOCC2)c1 [Example 41, 5-(3-(2-(Tetrahydro-2H-pyran-4-yl)ethynyl)phenoxy)-1H-1,2,3-triazole-4-carboxylic Acid]",13 nM
2,"O=C(O)c1nn[nH]c1Oc1cccc(C#CC2CCC(F)(F)CC2)c1 [Example 347, 5-(3-(2-(4,4-Difluorocyclohexyl)ethynyl)phenoxy)-1H-1,2,3-triazole-4-carboxylic Acid]",21 nM
3,"O=C(O)c1nn[nH]c1Oc1ccc(C#CC2CCC2)cc1 [Example 24, 5-(4-(2-Cyclobutylethynyl)phenoxy)-1H-1,2,3-triazole-4-carboxylic Acid]",16 nM
4,"Cn1ncc2c(C#Cc3cccc(Oc4[nH]nnc4C(=O)O)c3)cccc21 [Example 315, 5-(3-(2-(1-Methyl-1H-indazol-4-yl)ethynyl)phenoxy)-1H-1,2,3-triazole-4-carboxylic Acid]",2 nM
5,"CC(C)(C)C#Cc1ccc(Oc2[nH]nnc2C(=O)O)cc1 [Example 16, 5-(4-(3,3-Dimethylbut-1-ynyl)phenoxy)-1H-1,2,3-triazole-4-carboxylic Acid]",210 nM
6,"O=C(O)c1nn[nH]c1Cc1cccc(C#CCC2CC2)c1 [Example 365, 5-(3-(3-Cyclopropylprop-1-ynyl)benzyl)-1H-1,2,3-triazole-4-carboxylic Acid]",98 nM
7,"N#Cc1ccc(C#Cc2cc(F)cc(Oc3[nH]nnc3C(=O)O)c2)cc1 [Example 276, 4-(3-((4-Cyanophenyl)ethynyl)-5-fluorophenoxy)-1H-1,2,3-triazole-5-carboxylic Acid]",3 nM
8,"N#Cc1cccc(C#Cc2ccc(Oc3[nH]nnc3C(=O)O)cc2F)c1 [Example 270, 5-(4-((3-Cyanophenyl)ethynyl)-3-fluorophenoxy)-1H-1,2,3-triazole-4-carboxylic Acid]",1 nM
9,"O=C(O)c1nn[nH]c1Oc1cccc(C#Cc2cccc3[nH]ncc23)c1 [Example 328, 5-(3-(2-(1H-Indazol-4-yl)ethynyl)phenoxy)-1H-1,2,3-triazole-4-carboxylic Acid]",1 nM
10,"O=C(O)c1ccc(C#Cc2cc(F)cc(Oc3[nH]nnc3C(=O)O)c2)cc1 [Example 265, 5-(3-Fluoro-5-(2-(4-carboxyphenyl)ethynyl)phenoxy)-1H-1,2,3-triazole-4-carboxylic Acid]",3 nM
11,"Cn1ncc2cccc(C#Cc3cccc(Oc4[nH]nnc4C(=O)O)c3)c21 [Example 326, 5-(3-(2-(1-Methyl-1H-indazol-7-yl)ethynyl)phenoxy)-1H-1,2,3-triazole-4-carboxylic Acid]",2 nM
12,"O=C(O)c1nn[nH]c1Oc1ccc(C#Cc2ccc3[nH]ncc3c2)cc1 [Example 108, 5-(4-(2-(1H-Indazol-5-yl)ethynyl)phenoxy)-1H-1,2,3-triazole-4-carboxylic Acid]",1 nM
13,"O=C(O)c1nn[nH]c1Oc1ccc(C#Cc2ccc(Cl)cc2)cc1 [Example 290, 5-(4-(2-(4-Chlorophenyl)ethynyl)phenoxy)-1H-1,2,3-triazole-4-carboxylic Acid]",0.4 nM
14,"Cn1ncc2cc(C#Cc3cccc(Oc4[nH]nnc4C(=O)O)c3)ccc21 [Example 317, 5-(3-(2-(1-Methyl-1H-indazol-5-yl)ethynyl)phenoxy)-1H-1,2,3-triazole-4-carboxylic Acid]",2 nM
15,"COc1cccc(C#Cc2ccc(Oc3[nH]nnc3C(=O)O)cc2)c1 [Example 286, 5-(4-(2-(3-Methoxyphenyl)ethynyl)phenoxy)-1H-1,2,3-triazole-4-carboxylic Acid]",2 nM
16,"O=C(O)c1nonc1Oc1ccc(C#CCC2CC2)cc1 [Example 369, 4-(4-(3-Cyclopropylprop-1-ynyl)phenoxy)-1,2,5-oxadiazole-3-carboxylic Acid]",> 1000 nM
17,"Cn1ncc2cc(C#Cc3ccc(Oc4[nH]nnc4C(=O)O)cc3)ccc21 [Example 316, 5-(4-(2-(1-Methyl-1H-indazol-5-yl)ethynyl)phenoxy)-1H-1,2,3-triazole-4-carboxylic Acid]",2 nM
18,"CCOC(=O)c1c(Oc2cccc(C#CCC3CC3)c2)n[nH]c1C [Example 358, Ethyl 3-(3-(3-cyclopropylprop-1-ynyl)phenoxy)-5-methyl-1H-pyrazole-4-carboxylate]",> 1000 nM
19,"CC(C)(C)CC#Cc1cccc(Oc2[nH]nnc2C(=O)O)c1 [Example 372, 5-(3-(4,4-Dimethylpent-1-ynyl)phenoxy)-1H-1,2,3-triazole-4-carboxylic Acid]",> 1000 nM

row,SMILES,IC50
1,"CC(C)(O)C#Cc1ccc(Oc2[nH]nnc2C(=O)O)cc1 [Example 13, 5-(4-(3-Hydroxy-3-methylbut-1-ynyl)phenoxy)-1H-1,2,3-triazole-4-carboxylic Acid]",440 nM
2,"O=C(O)c1nn[nH]c1Oc1ccc(C(F)(F)F)c(C#Cc2ccccc2)c1 [Example 263, 5-(4-(Trifluoromethyl)-3-(2-phenylethynyl)phenoxy)-1H-1,2,3-triazole-4-carboxylic Acid]",2 nM
3,"N#Cc1ccc(C#Cc2ccc(Oc3[nH]nnc3C(=O)O)cc2F)cc1 [Example 269, 5-(4-((4-Cyanophenyl)ethynyl)-3-fluorophenoxy)-1H-1,2,3-triazole-4-carboxylic Acid]",1 nM
4,"O=C(O)c1nn[nH]c1Oc1cccc(C#Cc2cccnn2)c1 [Example 340, 5-(3-(2-(Pyridazin-3-yl)ethynyl)phenoxy)-1H-1,2,3-triazole-4-carboxylic Acid]",3 nM
5,"O=C(O)c1nonc1Oc1cccc(C#CCC2CC2)c1 [Example 370, 4-(3-(3-Cyclopropylprop-1-ynyl)phenoxy)-1,2,5-oxadiazole-3-carboxylic Acid]",> 1000 nM
6,"COc1ccc(C#Cc2ccc(Oc3[nH]nnc3C(=O)O)cc2)cc1 [Example 280, 5-(4-(2-(4-Methoxyphenyl)ethynyl)phenoxy)-1H-1,2,3-triazole-4-carboxylic Acid]",4 nM
7,"Cn1ncc2cccc(C#Cc3ccc(Oc4[nH]nnc4C(=O)O)cc3)c21 [Example 325, 5-(4-(2-(1-Methyl-1H-indazol-7-yl)ethynyl)phenoxy)-1H-1,2,3-triazole-4-carboxylic Acid]",2 nM
8,"O=C(O)c1nn[nH]c1Oc1ccc(C#Cc2cccc3[nH]ncc23)cc1 [Example 327, 5-(4-(2-(1H-Indazol-4-yl)ethynyl)phenoxy)-1H-1,2,3-triazole-4-carboxylic Acid]",2 nM
9,"Cn1ccnc1C#Cc1cccc(Oc2[nH]nnc2C(=O)O)c1 [Example 334, 5-(3-(2-(1-Methyl-1H-imidazol-2-yl)ethynyl)phenoxy)-1H-1,2,3-triazole-4-carboxylic Acid]",5 nM
10,"O=C(O)c1nn[nH]c1Oc1cccc(C#CC2CCC3(CC2)OCCO3)c1 [Example 351, 5-(3-(1,4-Dioxaspiro[4.5]decan-8-ylethynyl)phenoxy)-1H-1,2,3-triazole-4-carboxylic Acid]",20 nM
11,"CS(=O)(=O)c1cccc(C#Cc2ccc(Oc3[nH]nnc3C(=O)O)cc2)c1 [Example 254, 5-(4-(2-(3-(Methylsulfonyl)phenyl)ethynyl)phenoxy)-1H-1,2,3-triazole-4-carboxylic Acid]",3 nM
12,"O=C(O)c1nn[nH]c1Oc1cccc(C#Cc2ccncc2)c1 [Example 313, 5-(3-(2-(Pyridin-4-yl)ethynyl)phenoxy)-1H-1,2,3-triazole-4-carboxylic Acid]",3 nM
13,"O=C(O)c1nn[nH]c1Oc1cccc(C#Cc2cccc(Cl)c2)c1 [Example 187, 5-(3-(2-(3-Chlorophenyl)ethynyl)phenoxy)-1H-1,2,3-triazole-4-carboxylic Acid]",1 nM
14,"Cc1[nH]nc(Oc2ccc(C#CCC3CC3)cc2)c1C(=O)O [Example 361, 3-(4-(3-Cyclopropylprop-1-ynyl)phenoxy)-5-methyl-1H-pyrazole-4-carboxylic Acid]",> 1000 nM
15,"Cn1nccc1C#Cc1ccc(Oc2[nH]nnc2C(=O)O)cc1 [Example 321, 5-(4-(2-(1-Methyl-1H-pyrazol-5-yl)ethynyl)phenoxy)-1H-1,2,3-triazole-4-carboxylic Acid]",5 nM
16,"Cn1ccc(C#Cc2ccc(Oc3[nH]nnc3C(=O)O)cc2)cc1=O [Example 256, 4-(4-((1-Methyl-2-oxo-1,2-dihydropyridin-4-yl)ethynyl)phenoxy)-1H-1,2,3-triazole-5-carboxylic Acid]",2 nM
17,"CCOC(=O)c1nn[nH]c1[S+]([O-])c1cccc(C#CCC(C)C)c1 (stereo not shown) [Example 373, Ethyl 5-(3-(4-methylpent-1-ynyl)phenylsulfinyl)-1H-1,2,3-triazole-4-carboxylate]",> 1000 nM
18,"O=C(O)c1nn[nH]c1Oc1ccc(C#CCc2ccc(F)cc2)cc1 [Example 353, 5-(4-(3-(4-fluorophenyl)prop-1-ynyl)phenoxy)-1H-1,2,3-triazole-4-carboxylic Acid]",3 nM
19,"N#Cc1cccc(C#Cc2cc(F)cc(Oc3[nH]nnc3C(=O)O)c2)c1 [Example 277, 4-(3-((3-Cyanophenyl)ethynyl)-5-fluorophenoxy)-1H-1,2,3-triazole-5-carboxylic Acid]",2 nM

# Test system: not listed separately
# Experiment: In-vivo pharmacokinetic evaluation (exposure, AUC fold-over Example 1)
# Conditions: male CD-1 mice, 10 mg/kg oral gavage in 20% (2-Hydroxypropyl)-β-cyclodextrin, plasma at 0.5, 2 and 6 hours post-dose; AUC expressed as fold-over Example 1
# Procedure: In-vivo exposure of test compounds was determined in 5-6 week old male CD-1 mice. Mice (n=2/compound) received 10 mg/kg of each compound formulated in 20% (2-Hydroxypropyl)-β-cyclodextrin (10 μL/g) by oral gavage. At 0.5 hours, 2 hours, and 6 hours post-dose, blood samples were collected from the submandibular vein using EDTA as an anticoagulant and stored on ice. Plasma samples were obtained by centrifugation at 4° C. and were analyzed immediately or stored at −20° C. until analysis. Compounds were extracted from mouse plasma with acetonitrile and quantified by LC-MS-MS in the negative ion mode using a standard curve.
row,SMILES,AUC Fold over Ex. 1
1,"O=C(O)c1nn[nH]c1Oc1cccc(C#CC2CCOCC2)c1 [Example 41, 5-(3-(2-(Tetrahydro-2H-pyran-4-yl)ethynyl)phenoxy)-1H-1,2,3-triazole-4-carboxylic Acid]",0.1
2,"O=C(O)c1nn[nH]c1Oc1cccc(C#CC2CCC(F)(F)CC2)c1 [Example 347, 5-(3-(2-(4,4-Difluorocyclohexyl)ethynyl)phenoxy)-1H-1,2,3-triazole-4-carboxylic Acid]",0.7
3,"O=C(O)c1nn[nH]c1Oc1ccc(C#CC2CCC2)cc1 [Example 24, 5-(4-(2-Cyclobutylethynyl)phenoxy)-1H-1,2,3-triazole-4-carboxylic Acid]",0.3
4,"Cn1ncc2c(C#Cc3cccc(Oc4[nH]nnc4C(=O)O)c3)cccc21 [Example 315, 5-(3-(2-(1-Methyl-1H-indazol-4-yl)ethynyl)phenoxy)-1H-1,2,3-triazole-4-carboxylic Acid]",0.3
5,"CC(C)(C)C#Cc1ccc(Oc2[nH]nnc2C(=O)O)cc1 [Example 16, 5-(4-(3,3-Dimethylbut-1-ynyl)phenoxy)-1H-1,2,3-triazole-4-carboxylic Acid]",0.2
